Values of other authors in US20080138388A1 (priority 2005, published 2008).
Where two headings read alike, the source gives them in different places.

SMILES | logP (octanol-water partition coefficient, free state) (free state) | logP (octanol-water partition coefficient, free state)
Nc1c(Br)cc(Br)cc1CN[C@H]1CC[C@H](O)CC1 [ambroxol] | 3.00 | 
CCCN1C[C@H](CSC)C[C@@H]2c3cccc4[nH]cc(c34)C[C@H]21 [pergolide] | 4.07 | 
OC(CCN1CCCCC1)(c1ccccc1)c1ccccc1 [pridinol] | 3.79 | 
CCOc1ccccc1OCCN[C@H](C)Cc1ccc(OC)c(S(N)(=O)=O)c1 [tamsulosin] | 3.22 | 
CCOC(=O)[C@H](CCc1ccccc1)N[C@@H](C)C(=O)N1[C@H](C(=O)O)C[C@H]2CCCC[C@@H]21 [trandopril] |  | 4.00
